Test results as given in patent US6444703B1, “Cyclohexane carbocyclic ester derivative and cyclodextrin complex and composition for treatment of helicobacter pylori infections” (Teikoku Chemical Industries Co., Ltd., priority 1995, dated 2002).
Several values for one entry are separate records, joined by “and”; a condition that tells them apart may be missing. Equal entries are not always repeated. Where two headings read alike, the source gives them in different places.

What was measured:
[1] = test system: Helicobacter pylori ATCC 43504; test: Eradication of Helicobacter pylori in stomach of infected Mongolian gerbils (viable cell counting); assay type: in vivo; conditions: oral 10 ml/kg three times on the 11th day, stomach viable cells 20 hours after final administration, individual animals 1-3, versus control 3.7 × 10^4 CFU/stomach, hydrochloride
Protocol: Helicobacter pylori ATCC 43504 (100 μl) was inoculated into Brain heart infusion broth containing 10% calf serum and incubated at 37° C. for 24 hours in a microaerophilic atmosphere. The culture broth (0.5 ml containing about 3×10^8 CFU/ml) was administered orally to Mongolian gerbils (MON/Jms/Gba Slc; male of six weeks age) after fasting for 24 hours, then neither feed nor water was given for four hours and, after that, the animals were given with feed and water for ten days. Three infected animals as prepared in (1) were used per group. They were fasted from 20 hours before the 11th day (although water was made freely taken by them) and, during the fasted stage, 10 ml/kg each of the test drugs for administration prepared in Examples and Comparative Examples were orally given to them at 9:00, 13:00 and 17:00 o'clock on the 11th day. Feeding was started as from 21:00 o'clock and, after 20 hours from the final administration, stomach of the animals was removed and Helicobacter pylori living therein was subjected to a viable cell counting. The stomachs were cut open and the contents were removed (no washing conducted) and homogenized in 20 ml of 0.1M phosphate buffer (pH 7.2) to give a sample for viable cell counting. […] The growing colonies were counted after 6 days. […] Incidentally, the eradication rate was calculated according to the following calculating expression. […]

[2] = Solubility measurement (excess added to solvent, shaken one hour, supernatant assayed); assay type: physicochemical; conditions: thermodynamic from solid, 25° C.
Protocol: Incidentally, the method for measuring the solubility in each example is as follows. Thus, an excessive amount of the present compound was added to a certain amount of solvent, the mixture was shaken for one hour, the supernatant liquid was removed and the amount of the present compound contained therein was measured wherefrom the solubility was calculated.

Cc1ccc(COC(=O)c2ccc(-c3ccc(OC(=O)[C@H]4CC[C@H](CNC(=N)N)CC4)cc3)cc2)cc1.Cl [Comp.Ex.1, 4-[4-(4-Methylbenzyloxycarbonyl)phenyl]phenyl trans-4-guanidinomethylcyclohexanecarboxylate hydrochloride]
Eradication Rate (%) [1]: 95.7% and 62.2% and 0%
solubility at 1 h ([2]; 0.05M phosphate buffer, aqueous buffer, pH 6.5, read-out: Solubility in 0.05M phosphate buffer (pH 6.5)): < 0.1 µg/mL
solubility at 1 h ([2]; 0.1M acetate buffer, aqueous buffer, pH 4.0, read-out: Solubility in 0.1M acetate buffer (pH 4.0)): < 0.1 µg/mL
solubility at 1 h ([2]; first fluid (The Japanese Pharmacopoeia), simulated gastric fluid, pH 1.2, read-out: Solubility in the first fluid (The Japanese Pharmacopoeia) (pH 1.2)): < 0.1 µg/mL
solubility at 1 h ([2]; water, read-out: Solubility in water): 24 µg/mL
